# From patent EP4717694A1, “PYRAZOLFORMYL PIPERAZINONE COMPOUND, PHARMACEUTICAL COMPOSITION AND USE THEREOF” (Iregene Therapeutics Co., Ltd., priority 2023, dated 2024)
# Assays:
# BMPR1B kinase = BMPR1B kinase (Homo sapiens, UniProt O00238); assay: Kinase activity screening (330 kinases, HTRF or ADP-Glo); type: biochemical; details: screen of 330 kinases; II-1 2.5 mM, 25 nL in DMSO added to 2.5 µL kinase; Figure 1A
# Method: A total of 330 kinase candidates (15-50 nM, 2.5 µL) were mixed with compound II-1 (2.5 mM, 25 nL, prepared in DMSO) and incubated at 25 °C for 10 minutes. Then, a mixture of kinase peptide substrate (0.2 mg/mL; supplier: GenScript) and ATP (10-60 µM; supplier: Promega; product number: V915B) was added (total 2.5 µL, prepared in assay buffer), and the reaction was carried out at 25 °C for 60-120 minutes. Finally, the reaction products were quantified using HTRF1 or ADP-Glo2 methods. During the kinase activity assay, the consumption of each substrate was kept below 10%, and each kinase assay was performed in duplicate.
# glioma U251 cells = assay: Treatment of glioma cells, qPCR transcriptional analysis (CASP3) and cytotoxicity versus LY2157299; type: cell-based
# Method: In this example, compound II-1 and the reference compound LY2157299 were used to treat glioma U251 cells. Samples were collected at 12 hours and 72 hours posttreatment. Total RNA was extracted using the Rneasy Mini or Micro Kit (QIAGEN), and […] of RNA was reverse-transcribed into cDNA using the SuperScript III First-Strand Synthesis System (Invitrogen). Quantitative PCR was performed using SYBR Premix Ex Taq (TaKaRa) on a Thermal Cycler Dice Real-Time System (TaKaRa), with beta-Actin serving as an internal control. All data were analyzed using the delta-Ct method. Each experiment was performed in triplicate, and variance analysis was conducted. […] Table 3. Primers for transcriptional analysis of cells treated with compound II-1
# Hela = assay: CCK-8 cell viability assay; type: cell-based
# Method: (§1) Tumor cells OVCAR3 (ovarian cancer), HeLa ([…]), U251 (glioma), H9 cells, and non-tumor HEK293 cells were cultured in DMEM/F12 medium supplemented with 10% FBS and 1% P/S. When cells reached 70% confluency, they were digested with 0.25% Trypsin at 37°C for 2-3 minutes, and digestion was stopped with DMEM/F12 medium. Cell suspensions were collected in 15 mL centrifuge tubes, centrifuged at 1000 rpm for 5 minutes, the supernatant was discarded, and cells were resuspended in DMEM/F12 medium with 10% FBS and 1% P/S. Cells were counted using a hemocytometer, and based on the counts, they were resuspended to the desired concentration. Tumor cells were seeded in 96-well plates at 1×10^4 cells per well, 100 µL per well. From day 1 to day 7 after seeding, cells were treated with compound II-1 at 0 µM, 10 µM, 30 µM, and 50 µM (the pyrazolecarbonyl piperazinone compounds were diluted to 10 µM, 30 µM, and 50 µM with DMEM + 10% FBS). Each concentration was tested in triplicate wells.
# (§2) Cell viability on days 1, 3, 5, and 7 was determined using the CCK-8 cell proliferation/cytotoxicity assay kit (Vazyme, A311-02) by measuring absorbance at OD450 nm, with wells containing only medium and CCK-8 solution as blank controls. Each concentration was measured in triplicate.
# (§3) Calculation of cell survival rate: For the same cell type at the same time point, the absorbance of cells not treated with compound II-1 was set as 100% baseline. For cells treated with different concentrations, the absorbance was compared with the control group (CK) to calculate the relative proportion. For example, the survival rate of H9 cells on day 4 treated with 30 µM of the small molecule compound was calculated as follows: [OD(D4)30μMiPS]/[OD(D4)0μMH9] × 100% [formula] Table 2. Cell survival rates of various cell types after treatment with different concentrations of compound II-1 measured by CCK-8 assay
# H9 = assay: CCK-8 cell viability assay; type: cell-based
# Method: as §1, §2, §3
# U251 = assay: CCK-8 cell viability assay; type: cell-based
# Method: as §1, §2, §3
# HEK293 = assay: CCK-8 cell viability assay; type: cell-based
# Method: as §1, §2, §3
# OVCAR3 = assay: CCK-8 cell viability assay; type: cell-based
# Method: as §1, §2, §3
# Sequence of BMPR1B kinase (O00238 14-502): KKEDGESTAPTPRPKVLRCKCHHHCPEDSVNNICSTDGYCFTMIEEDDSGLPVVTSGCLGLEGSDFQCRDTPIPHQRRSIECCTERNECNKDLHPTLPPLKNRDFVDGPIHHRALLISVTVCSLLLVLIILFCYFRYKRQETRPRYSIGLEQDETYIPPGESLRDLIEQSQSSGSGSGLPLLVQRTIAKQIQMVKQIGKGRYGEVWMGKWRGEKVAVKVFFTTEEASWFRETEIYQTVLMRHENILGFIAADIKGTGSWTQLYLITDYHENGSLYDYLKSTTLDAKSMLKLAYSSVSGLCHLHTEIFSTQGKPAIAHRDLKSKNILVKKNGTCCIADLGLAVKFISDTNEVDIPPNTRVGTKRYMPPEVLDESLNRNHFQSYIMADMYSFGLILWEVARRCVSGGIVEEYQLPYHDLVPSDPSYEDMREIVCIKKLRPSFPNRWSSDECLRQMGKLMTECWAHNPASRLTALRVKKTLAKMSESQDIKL
smiles,measurement,setting,value
"O=C1CN(C(=O)c2n[nH]c3c2CCC3)[C@H]2CCCC[C@@H]2N1 [II-1, (4aS,8aS)-4-(1,4,5,6-tetrahydrocyclopenta[c]pyrazole-3-carbonyl)octahydroquinoxalin-2(1H)-one]",inhibitory activity against BMPR1B kinase,BMPR1B kinase,significant inhibitory activity
same,cells remaining in the wells compared to LY2157299,"glioma U251 cells; after 72 hours of treatment, Figure 3",fewer cells remained
same,apoptosis compared to LY2157299,"glioma U251 cells; same concentration as LY2157299, Figure 3",higher apoptosis
same,Cell survival rate,"Hela; II-1 10 µM, Day 1 Treatment",103.32%
same,Cell survival rate,"Hela; II-1 10 µM, Day 3 Treatment",98.58%
same,Cell survival rate,"Hela; II-1 10 µM, Day 5 Treatment",97.35%
same,Cell survival rate,"Hela; II-1 10 µM, Day 7 Treatment",97.27%
same,Cell survival rate,"Hela; II-1 30 µM, Day 1 Treatment",100.64%
same,Cell survival rate,"Hela; II-1 30 µM, Day 3 Treatment",93.45%
same,Cell survival rate,"Hela; II-1 30 µM, Day 5 Treatment",90.71%
same,Cell survival rate,"Hela; II-1 30 µM, Day 7 Treatment",85.04%
same,Cell survival rate,"Hela; II-1 50 µM, Day 1 Treatment",88.66%
same,Cell survival rate,"Hela; II-1 50 µM, Day 3 Treatment",81.80%
same,Cell survival rate,"Hela; II-1 50 µM, Day 5 Treatment",80.31%
same,Cell survival rate,"Hela; II-1 50 µM, Day 7 Treatment",75.83%
same,"cell viability, course with time and concentration","Hela; II-1 10-50 µM, days 1-7",gradual decrease in cell viability over time
same,Cell survival rate,"H9; H9, II-1 10 µM, Day 1 Treatment",90.37%
same,Cell survival rate,"H9; H9, II-1 10 µM, Day 3 Treatment",92.91%
same,Cell survival rate,"H9; H9, II-1 10 µM, Day 5 Treatment",84.84%
same,Cell survival rate,"H9; H9, II-1 10 µM, Day 7 Treatment",83.47%
same,Cell survival rate,"H9; H9, II-1 30 µM, Day 1 Treatment",84.96%
same,Cell survival rate,"H9; H9, II-1 30 µM, Day 3 Treatment",86.01%
same,Cell survival rate,"H9; H9, II-1 30 µM, Day 5 Treatment",80.25%
same,Cell survival rate,"H9; H9, II-1 30 µM, Day 7 Treatment",78.71%
same,Cell survival rate,"H9; H9, II-1 50 µM, Day 1 Treatment",76.96%
same,Cell survival rate,"H9; H9, II-1 50 µM, Day 3 Treatment",73.87%
same,Cell survival rate,"H9; H9, II-1 50 µM, Day 5 Treatment",69.10%
same,Cell survival rate,"H9; H9, II-1 50 µM, Day 7 Treatment",65.98%
same,"cell viability, course with time and concentration","H9; H9, II-1 10-50 µM, days 1-7",gradual decline in viability
same,Cell survival rate,"U251; U251, II-1 10 µM, Day 1 Treatment",100.75%
same,Cell survival rate,"U251; U251, II-1 10 µM, Day 3 Treatment",98.96%
same,Cell survival rate,"U251; U251, II-1 10 µM, Day 5 Treatment",95.19%
same,Cell survival rate,"U251; U251, II-1 10 µM, Day 7 Treatment",94.74%
same,Cell survival rate,"U251; U251, II-1 30 µM, Day 1 Treatment",99.49%
same,Cell survival rate,"U251; U251, II-1 30 µM, Day 3 Treatment",87.01%
same,Cell survival rate,"U251; U251, II-1 30 µM, Day 5 Treatment",79.39%
same,Cell survival rate,"U251; U251, II-1 30 µM, Day 7 Treatment",74.00%
same,Cell survival rate,"U251; U251, II-1 50 µM, Day 1 Treatment",98.61%
same,Cell survival rate,"U251; U251, II-1 50 µM, Day 3 Treatment",85.27%
same,Cell survival rate,"U251; U251, II-1 50 µM, Day 5 Treatment",70.43%
same,Cell survival rate,"U251; U251, II-1 50 µM, Day 7 Treatment",63.89%
same,"cell viability, course with time and concentration","U251; U251, II-1 10-50 µM, days 1-7",gradual decrease in cell viability over time
same,Cell survival rate,"HEK293; HEK293, II-1 10 µM, Day 1 Treatment",96.09%
same,Cell survival rate,"HEK293; HEK293, II-1 10 µM, Day 3 Treatment",96.67%
same,Cell survival rate,"HEK293; HEK293, II-1 10 µM, Day 5 Treatment",98.80%
same,Cell survival rate,"HEK293; HEK293, II-1 10 µM, Day 7 Treatment",99.24%
same,Cell survival rate,"HEK293; HEK293, II-1 30 µM, Day 1 Treatment",93.69%
same,Cell survival rate,"HEK293; HEK293, II-1 30 µM, Day 3 Treatment",94.14%
same,Cell survival rate,"HEK293; HEK293, II-1 30 µM, Day 5 Treatment",94.39%
same,Cell survival rate,"HEK293; HEK293, II-1 30 µM, Day 7 Treatment",94.97%
same,Cell survival rate,"HEK293; HEK293, II-1 50 µM, Day 1 Treatment",80.80%
same,Cell survival rate,"HEK293; HEK293, II-1 50 µM, Day 3 Treatment",90.72%
same,Cell survival rate,"HEK293; HEK293, II-1 50 µM, Day 5 Treatment",92.46%
same,Cell survival rate,"HEK293; HEK293, II-1 50 µM, Day 7 Treatment",93.56%
same,"cell viability, course with time and concentration","HEK293; non-tumor HEK293, II-1 10-50 µM, days 1-7",did not show significant changes
same,Cell survival rate,"OVCAR3; OVCAR3, II-1 10 µM, Day 1 Treatment",95.05%
same,Cell survival rate,"OVCAR3; OVCAR3, II-1 10 µM, Day 3 Treatment",98.06%
same,Cell survival rate,"OVCAR3; OVCAR3, II-1 10 µM, Day 5 Treatment",96.19%
same,Cell survival rate,"OVCAR3; OVCAR3, II-1 10 µM, Day 7 Treatment",97.99%
same,Cell survival rate,"OVCAR3; OVCAR3, II-1 30 µM, Day 1 Treatment",89.67%
same,Cell survival rate,"OVCAR3; OVCAR3, II-1 30 µM, Day 3 Treatment",94.18%
same,Cell survival rate,"OVCAR3; OVCAR3, II-1 30 µM, Day 5 Treatment",92.35%
same,Cell survival rate,"OVCAR3; OVCAR3, II-1 30 µM, Day 7 Treatment",90.98%
same,Cell survival rate,"OVCAR3; OVCAR3, II-1 50 µM, Day 1 Treatment",88.56%
same,Cell survival rate,"OVCAR3; OVCAR3, II-1 50 µM, Day 3 Treatment",90.37%
same,Cell survival rate,"OVCAR3; OVCAR3, II-1 50 µM, Day 5 Treatment",85.37%
same,Cell survival rate,"OVCAR3; OVCAR3, II-1 50 µM, Day 7 Treatment",80.83%
same,"cell viability, course with time and concentration","OVCAR3; OVCAR3, II-1 10-50 µM, days 1-7",gradual decrease in cell viability over time
